How the values were obtained:
D2 receptor = D2 receptor (Homo sapiens, UniProt P14416); assay: [3H]Thymidine uptake assay for D2 intrinsic activity; type: cell-based; settings: Table 1; test compound 1 μM; 1 μM Quinpirole = 100% intrinsic activity
D2 receptor, sequence (P14416 whole entry): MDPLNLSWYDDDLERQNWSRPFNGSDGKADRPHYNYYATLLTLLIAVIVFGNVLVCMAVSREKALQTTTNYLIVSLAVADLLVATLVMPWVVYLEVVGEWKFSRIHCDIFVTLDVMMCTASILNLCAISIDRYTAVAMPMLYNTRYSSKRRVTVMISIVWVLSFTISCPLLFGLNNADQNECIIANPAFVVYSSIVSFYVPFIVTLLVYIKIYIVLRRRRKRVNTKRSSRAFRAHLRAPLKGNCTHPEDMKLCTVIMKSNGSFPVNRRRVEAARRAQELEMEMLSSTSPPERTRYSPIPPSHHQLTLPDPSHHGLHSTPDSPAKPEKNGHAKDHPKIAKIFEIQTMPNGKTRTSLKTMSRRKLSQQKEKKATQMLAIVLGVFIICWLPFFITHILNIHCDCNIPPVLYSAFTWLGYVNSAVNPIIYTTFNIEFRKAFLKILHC

With `CCOc1cccc(N2CCN(CCCCOc3ccc4c(n3)NC(=O)CC4)CC2)c1Cl` [Example A21, 7-{4-[4-(2-Chloro-3-ethoxy-phenyl)-piperazin-1-yl]-butoxy}-3,4-dihydro-1H-[1,8]naphthyridin-2-one] the melting point was 110 to 112 °C.

Compound `CC(=O)c1c(Cl)cccc1N1CCN(CCCCOc2ccc3c(n2)NC(=O)CC3)CC1` [Example A28, 7-{4-[4-(2-Acetyl-3-chloro-phenyl)-piperazin-1-yl]-butoxy}-3,4-dihydro-1H-[1,8]naphthyridin-2-one] has a melting point of 115 °C and an Emax at 1 µM (D2 receptor) of 2%.

In the case of `CC(=O)c1cccc(N2CCN(CCCCOc3ccc4c(n3)NC(=O)CC4)CC2)c1Cl` [Example A32, 7-{4-[4-(3-Acetyl-2-chloro-phenyl)-piperazin-1-yl]-butoxy}-3,4-dihydro-1H-[1,8]naphthyridin-2-one], the melting point is reported as 138 to 139 °C and the Emax at 1 µM (D2 receptor) is reported as 7%.

Compound `O=C1CCc2ccc(OCCCCN3CCN(c4cccc5c4CCCC5=O)CC3)nc2N1` [Example A58, 7-{4-[4-(5-Oxo-5,6,7,8-tetrahydro-naphthalen-1-yl)-piperazin-1-yl]-butoxy}-3,4-dihydro-1H-[1,8]naphthyridin-2-one] has a melting point of 169 to 170 °C and an Emax at 1 µM (D2 receptor) of 48%.

For `CC(=O)c1cccc(N2CCN(CCCCOc3ccc4ccc(=O)[nH]c4n3)CC2)c1Cl` [Example B6, 7-{4-[4-(3-Acetyl-2-chloro-phenyl)-piperazin-1-yl]-butoxy}-1H-[1,8]naphthyridin-2-one], the melting point was 108 to 110 °C and the Emax at 1 µM (D2 receptor) was 16%.

With `O=C1CCCc2c1cccc2N1CCN(CCCCOc2ccc3ccc(=O)[nH]c3n2)CC1` [Example B42, 7-{4-[4-(5-Oxo-5,6,7,8-tetrahydro-naphthalen-1-yl)-piperazin-1-yl]-butoxy}-1H-[1,8]naphthyridin-2-one] the melting point was 158 to 160 °C and the Emax at 1 µM (D2 receptor) was 37%.

With `O=c1ccc2ccc(CCCCCN3CCN(c4cccc(Cl)c4Cl)CC3)nc2[nH]1` [Example C20, 7-{5-[4-(2,3-Dichloro-phenyl)-piperazin-1-yl]-pentyl}-1H-[1,8]naphthyridin-2-one] the melting point was 176 to 178 °C.

Work on `Cc1cc(=O)[nH]c2nc(OCCCCN3CCN(c4cccc(Cl)c4Cl)CC3)ccc12` [Example D1, 7-{4-[4-(2,3-Dichloro-phenyl)-piperazin-1-yl]-butoxy}-4-methyl-1H-[1,8]naphthyridin-2-one] yielded a melting point of 181 to 182 °C and an Emax at 1 µM (D2 receptor) of 31%.

For `Cc1cc(=O)[nH]c2nc(CCCCCN3CCN(c4cccc(Cl)c4Cl)CC3)ccc12` [Example D3, 7-{5-[4-(2,3-Dichloro-phenyl)-piperazin-1-yl]-pentyl}-4-methyl-1H-[1,8]naphthyridin-2-one], the melting point was 195 to 196 °C and the Emax at 1 µM (D2 receptor) was 15%.

`Cc1cc2ccc(CCCCCN3CCN(c4cccc(Cl)c4Cl)CC3)nc2[nH]c1=O` [Example D5, 7-{5-[4-(2,3-Dichloro-phenyl)-piperazin-1-yl]-pentyl}-3-methyl-1H-[1,8]naphthyridin-2-one] gave a melting point of 157 to 158 °C and an Emax at 1 µM (D2 receptor) of 15%.

In the case of `Cc1c(C)c2ccc(OCCCCN3CCN(c4cccc(Cl)c4Cl)CC3)nc2[nH]c1=O` [Example D7, 7-{4-[4-(2,3-Dichloro-phenyl)-piperazin-1-yl]-butoxy}-3,4-dimethyl-1H-[1,8]naphthyridin-2-one], the melting point is reported as 161 to 163 °C and the Emax at 1 µM (D2 receptor) is reported as 15%.

Compound `Cc1c(C)c2ccc(CCCCCN3CCN(c4cccc(Cl)c4Cl)CC3)nc2[nH]c1=O` [Example D8, 7-{5-[4-(2,3-Dichloro-phenyl)-piperazin-1-yl]-pentyl}-3,4-dimethyl-1H-[1,8]naphthyridin-2-one] has a melting point of 202 to 203 °C and an Emax at 1 µM (D2 receptor) of 8%.

With `Cc1cc2c(nc1OCCCCN1CCN(c3cccc(Cl)c3Cl)CC1)NC(=O)CC2` [Example E1, 7-{4-[4-(2,3-Dichloro-phenyl)-piperazin-1-yl]-butoxy}-6-methyl-3,4-dihydro-1H-[1,8]naphthyridin-2-one] the melting point was 138 to 139 °C and the Emax at 1 µM (D2 receptor) was 32%.

Work on `Cc1cc2c(nc1OCCCCN1CCN(c3cccc4ccccc34)CC1)NC(=O)CC2` [Example E2, 6-Methyl-7-[4-(4-naphthalen-1-yl-piperazin-1-yl)-butoxy]-3,4-dihydro-1H-[1,8]naphthyridin-2-one] yielded a melting point of 76 to 78 °C and an Emax at 1 µM (D2 receptor) of 22%.

Work on `O=C1NCc2ccc(OCCCCN3CCN(c4cccc(Cl)c4Cl)CC3)nc2N1` [Example F1, 7-{4-[4-(2,3-Dichloro-phenyl)-piperazin-1-yl]-butoxy}-3,4-dihydro-1H-pyrido[2,3-d]pyrimidin-2-one] yielded a melting point of 166 to 167 °C and an Emax at 1 µM (D2 receptor) of 8%.

`O=C1NCc2ccc(OCCCCN3CCN(c4cccc5ccccc45)CC3)nc2N1` [Example F2, 7-[4-(4-Naphthalen-1-yl-piperazin-1-yl)-butoxy]-3,4-dihydro-1H-pyrido[2,3-d]pyrimidin-2-one] showed a melting point of 136 to 138 °C and an Emax at 1 µM (D2 receptor) of 30%.

`O=C1CCc2cnc(OCCCCN3CCN(c4cccc(Cl)c4Cl)CC3)c(Cl)c2N1` [Example I9, 8-Chloro-7-{4-[4-(2,3-dichloro-phenyl)-piperazin-1-yl]-butoxy}-3,4-dihydro-1H-[1,6]naphthyridin-2-one] showed an Emax at 1 µM (D2 receptor) of 19%.

Compound `O=C1CCc2cnc(OCCCCN3CCN(c4cccc5ccccc45)CC3)c(Cl)c2N1` [Example I10, 8-Chloro-7-[4-(4-naphthalen-1-yl-piperazin-1-yl)-butoxy]-3,4-dihydro-1H-[1,6]naphthyridin-2-one] has an Emax at 1 µM (D2 receptor) of 21%.

With `COC(=O)c1c(OCCCCN2CCN(c3cccc4ccccc34)CC2)ncc2c1NC(=O)CC2` [Example I11, 7-[4-(4-Naphthalen-1-yl-piperazin-1-yl)-butoxy]-2-oxo-1,2,3,4-tetrahydro-[1,6]naphthyridine-8-carboxylic acid methyl ester] the Emax at 1 µM (D2 receptor) was 19%.

In the case of `O=c1ccc2cnc(OCCCCN3CCN(c4cccc5c4CCCC5)CC3)cc2[nH]1` [Example I14, 7-{4-[4-(5,6,7,8-Tetrahydro-naphthalen-1-yl)-piperazin-1-yl]-butoxy}-1H-[1,6]naphthyridin-2-one], the Emax at 1 µM (D2 receptor) is reported as 24%.

In the case of `O=c1ccc2cnc(OCCCCN3CCN(c4cccc5c4CCC5)CC3)cc2[nH]1` [Example I15, 7-[4-(4-Indan-4-yl-piperazin-1-yl)-butoxy]-1H-[1,6]naphthyridin-2-one], the Emax at 1 µM (D2 receptor) is reported as 20%.

Compound `O=c1ccc2cnc(OCCCCN3CCN(c4cccc5ccccc45)CC3)cc2[nH]1` [Example I16, 7-[4-(4-Naphthalen-1-yl-piperazin-1-yl)-butoxy]-1H-[1,6]naphthyridin-2-one] has an Emax at 1 µM (D2 receptor) of 27%.

With `O=c1ccc2cnc(OCCCCN3CCN(c4cccc5ccc(F)cc45)CC3)cc2[nH]1` [Example I17, 7-{4-[4-(7-Fluoro-naphthalen-1-yl)-piperazin-1-yl]-butoxy}-1H-[1,6]naphthyridin-2-one] the Emax at 1 µM (D2 receptor) was 32%.

Work on `O=c1ccc2cnc(NCCCCN3CCN(c4cccc(Cl)c4Cl)CC3)cc2[nH]1` [Example I18, 7-{4-[4-(2,3-Dichloro-phenyl)-piperazin-1-yl]-butylamino}-1H-[1,6]naphthyridin-2-one] yielded an Emax at 1 µM (D2 receptor) of 54%.

With `CC1(C)OC(=O)Nc2cc(CCCCCN3CCN(c4cccc(Cl)c4Cl)CC3)ncc21` [Example I19, 7-{5-[4-(2,3-Dichloro-phenyl)-piperazin-1-yl]-pentyl}-4,4-dimethyl-1,4-dihydro-pyrido[4,3-d][1,3]oxazin-2-one] the Emax at 1 µM (D2 receptor) was 22%.

Source: US7160888B2, “[1,8]naphthyridin-2-ones and related compounds for the treatment of schizophrenia” (Warner Lambert Company LLC, priority 2003, dated 2007)
